Experimental data: patent US6387406B1, “Copolymer compositions for oral delivery” (Supratek Pharma Inc., priority 1992, dated 2002)
≈ marks a conversion by molar mass, not a printed value. Where two headings read alike, the source gives them in different places.

Tests used:
[1] = system: SKVLB cell line (SK-resistant cells); test: XTT cytotoxicity on SK-resistant cells; format: cell-based, human; details: for IC50: Homo sapiens
DBA/2 mice [2] = system: DBA/2 mice
BALB/c male mice = details: mouse, in vivo, ip
[3] = system: neuroleptic effect as monitored behaviorally; test: Minimum neuroleptic dose (MND); format: in vivo; details: control preparation
Experimental: The minimum neuroleptic dose (MND) was determined for each preparation. The minimum neuroleptic dose is defined as the minimum dose that caused a neuroleptic effect as monitored behaviorally. See, Kabanov et al., FEBS Lett. 258: 343-345, 1989. The MND for the copolymer-containing preparation was 0.02 mg/kg, while that of the control preparation was 2 mg/kg. The ratio of LD95/MND was 50 for the copolymer preparation and 5 for the control preparation.

glucose level in plasma = test: Insulin-induced hypoglycemia, s.c. or p.o.; format: in vivo, Balb/c mice
Experimental: Hypoglycemia induced by high doses of insulin in mice was used as biological response criteria. The drug activity was evaluated by analyzing the glucose level in plasma versus time following drug administration. Isotonic solutions of free insulin (Ins) or insulin formulated with POE-POP block copolymer (“SP1-Ins”) were given to Balb/c mice at the same doses either s.c. or p.o.
Female six-week-old Balb/c mice (six animals per time point) were administered s.c. or p.o. with sterile 100 μl per 20 g of body weight (5 ml/kg) of Insulin or SP1-Insulin solutions, and the same volumes of isotonic solution were given to the control group of animals. Both Insulin and SP1-Insulin injections contained 0.02 mg/ml of insulin with activity of 27.3 μ/mg.
The animals were sacrificed after various time intervals (0.5-6 hr; post-administration), plasma samples were collected, and glucose levels were analyzed by standard glucosoxidase-peroxidase method. The statistical significance was analyzed by the multiple range text of Duncan-Kramer.

DBA/2 mice [4] = details: ±S.D.
[5] = system: SKOV3 line of transformed cells (SK cells); test: Cytotoxicity on SK cells; format: cell-based, human; details: free drug
[6] = control preparation, solution in RPMI 1640
[7] = Example 10: 10% of LD95 i.p., stearoylated insulin-targeted micelles vs free drug

## CN(Cc1cnc2nc(N)nc(N)c2n1)c1ccc(C(=O)N[C@@H](CCC(=O)O)C(=O)O)cc1 [methotrexate]
[1]; free drug, read-out: IC50 against SK-resistant cells
  IC50: 1.34 µg/mL (≈ 2.95 µM)

## CCN1CCCC1CNC(=O)c1cc(S(N)(=O)=O)ccc1OC (stereo not shown) [Sulpiride]
DBA/2 mice [2]; [6]
  LD95: 100 mg/kg body weight

## Pluronic P85
BALB/c male mice
  MTD: 200 mg/kg

## CN1CCN(CCCN2c3ccccc3Sc3ccc(C(F)(F)F)cc32)CC1 [Trifluorperazine]
DBA/2 mice [2]; [6]
  LD95: 10 mg/kg body weight
[3]
  minimum neuroleptic dose (MND): 2 mg/kg
  ratio of LD95/MND: 5

## Insulin
Glucose level in plasma; p.o., in words
  changes in plasma glucose level: only minor changes
Glucose level in plasma; s.c.
  time to return to the normal glucose level: about 6 hours
Glucose level in plasma; s.c., 3 hours after administration
  glucose level in plasma: about 15 % of the normal level

## COc1cccc2c1C(=O)c1c(O)c3c(c(O)c1C2=O)C[C@@](O)(C(=O)CO)C[C@@H]3O[C@H]1C[C@H](N)[C@H](O)[C@H](C)O1 [Free doxorubicin, doxorubicin]
[1]
  IC50: 60 µg/mL (≈ 110 µM)

## O=C(CCCN1CCC(O)(c2ccc(Cl)cc2)CC1)c1ccc(F)cc1 [haloperidol]
DBA/2 mice [2]; i.p., without the Pluronic vehicle
  LD95: 75 mg/kg
DBA/2 mice [4]; Example 7: 10% of LD95 i.p., antibody-targeted micelles vs free drug
  Horizontal mobility: 204.6 ± 24%
DBA/2 mice [4]; [7]
  Grooming: 1656.4 ± 6.5%
  Horizontal mobility: 180.1 ± 26%

## CO[C@@]12[C@H](COC(N)=O)C3=C(C(=O)C(C)=C(N)C3=O)N1C[C@@H]1N[C@@H]12 [mitomycin C]
[5]
  IC50 against SK cells: 0.320 µg/mL (≈ 0.957 µM)
[1]; free drug
  IC50 against SK-resistant cells: 1.120 µg/mL (≈ 3.35 µM)
